Values joined by “and” are separate entries in the source; they are usually repeats but may differ in a detail not shown here. Identical values can stand only once.

In assay [1] the target is T1, human LARP1 LaM domain (residues 323–410) (Homo sapiens, UniProt Q6PKG0).
T1 construct: human LARP1 LaM domain (residues 323–410); made in house; host or cells: E. coli
Briefly: NMR titration of single nucleotides into 15N-labelled LARP1 (323-410), chemical shift changes. As to conditions: for Kd: 0.1 mM 15N-LARP1 (323-410), 10 mM MES pH 6.3, 100 mM NaCl, 25°C, fit accounts for bound ligand, two nucleotide binding sites, read-out: Kd, binding affinity estimated from chemical shift change (I364 amide) as a function of nucleotide concentration. Format: binding. As for the experimental part:
We carried out NMR titrations with single nucleotides binding to^15N-labelled LARP1 LaM to isolate the individual nucleotide interactions (Figure 1A). The addition of nucleotides caused spectral changes similar to those observed with the hexamer A6 but with smaller shifts and fewer signals affected (Suppl. Figure S1). […] The signals with the largest changes were the amide of Ile364 and side chain amides of Gln333.
At 200 µM, 5´-GMP shifted the Gln333 signal twice as much as 5´-AMP. […] We used the size of the chemical shift change as a function of nucleotide concentration to estimate binding affinities (Figure 1C). […] This had the advantage that it also provided an estimate of the binding stoichiometry. For 5´-GMP, the stoichiometry was measured to be 2.04 with an affinity of 40 µM. […] This is at odds with the affinities of oligonucleotides measured by isothermal titration calorimetry (ITC).
NMR samples were exchanged into 10 mM MES pH 6.3, 100 mM NaCl, 1 mM TCEP. For NMR titrations, nucleotides were added to 0.1 mM^15N-labelled LARP1 (323–410) to final molar ratios of 5:1. All NMR experiments were performed at 25°C using a Bruker 600 MHz spectrometer. NMR spectra were processed using NMRPipe and analysed with SPARKY [51]. Binding affinities were measured by fitting the observed chemical shift changes accounting for bound ligand with a stoichiometry of two nucleotide binding sites.

In assay [2] the target is T1, human LARP1 LaM domain (residues 323–410). Briefly: Isothermal titration calorimetry (ITC) of RNA ligands binding LARP1 (323-410). Particulars: for binding to the LaM domain by ITC (in words): LaM 40 μM in cell, cyclic dinucleotide 730-860 μM in syringe; for Rel. aff. (affinity relative to AAAAAA): Figure 2B, higher = tighter binding than A6. As to the method: ITC experiments were performed on the VP-ITC titration calorimeter (Malvern Instruments Ltd) except where noted. […] All experiments were carried out at 20°C with 29 injections of 10 µl. Results were analysed using ORIGIN software (MicroCal) and fitted to a binding model with a single set of identical sites, except where noted.
Background: In ITC the heat of successive injections is recorded.

Assay [3] addresses T2, LARP1 323-410 Q333A (Homo sapiens, UniProt Q6PKG0, Q410A).
T2 construct: ITC Data Collection and Analysis for LARP1 323-410 Q333A; His-tag; made in house; host or cells: E. coli
Briefly: ITC of RNA ligands binding LARP1 323-410 Q333A. Particulars: Q333A mutant. As for the experimental part:
(§1) ITC experiments were performed on the VP-ITC titration calorimeter (Malvern Instruments Ltd) except where noted. The syringe was loaded with 300 µM RNA sample, while the sample cell contained 20–30 µM LARP1 (323–410) sample. All experiments were carried out at 20°C with 29 injections of 10 µl. Results were analysed using ORIGIN software (MicroCal) and fitted to a binding model with a single set of identical sites, except where noted.
(§2) Table S3. ITC Data Collection and Analysis for LARP1 323-410 Q333A
(§3) RNA Kd, nM relative to DH, kcal mol-1 DS, cal mol-1 K-1 Conc., µM
(§4) 1Data acquired on iTC200 (Malvern Instruments Ltd).

Assay [4] addresses T3, LARP1 323-410 Q333A (Homo sapiens, UniProt Q6PKG0).
T3 construct: ITC Data Collection and Analysis for LARP1 323-410 Q333A; His-tag; made in house; host or cells: E. coli
Briefly: ITC of RNA ligands binding LARP1 323-410 Q333A. Particulars: Q333A mutant; LaM 30 (cell), RNA 300-600 (syringe). As for the experimental part:
as §1, §2, §3, §4

For assay [5], the target named is T1, human LARP1 LaM domain (residues 323–410). As to conditions: ITC of RNA oligonucleotides; cited from earlier work.
The mark [6] stands for this setting: ITC, 20°C, LaM in cell, RNA in syringe.
Setting [7] is: ITC, 20°C, LaM in cell, RNA in syringe, read-out: Kd.
The mark [8] stands for this setting: Table S1, LaM in cell, RNA in syringe.
Setting [9] is: reversed titration: RNA 15 (cell), LaM 300 (syringe).
The mark [10] stands for this setting: ITC, 20°C, LaM 20-30 µM in cell, RNA 300 µM in syringe, single set of identical sites, read-out: Kd.

On to `Nc1ncnc2c1ncn2[C@@H]1O[C@H](COP(=O)(O)O)[C@@H](OP(=O)(O)O)[C@H]1O` [3',5'-ADP, 3´,5´-ADP], for which, in assay [1] (NMR titration), the “Gln333 signal change (in words)” value is “broadened the Gln333 signal beyond detection” and the “Ile364 chemical shift change (in words)” value is on record as “small shift”.

In assay [2] (setting [6]), 5´-APAPAPAPAPSA-3´ [(SP)-AAAAAPSA] gave a ΔH of -23.1 kcal/mol and a ΔS of -57.1 cal mol^-1 K^-1. For the same compound, the Kd in assay [2] (setting [7]) was 17 µM. Moreover, the “fold lower affinity of the (SP)-phosphorothioate” value in assay [2] (ITC, Figure 5D, compared with the (RP)-phosphorothioate) is reported as 60 fold. For the same compound, the “Affinity relative to A6” value in assay [2] (setting [8]) came out at 68.

Consider 5´-GPG-3´ [GG], for which the Kd result in assay [2] (ITC, 20°C, LaM 20-30 µM in cell, RNA 300 µM in syringe, single set of identical sites) is “not fitted”; in assay [2] (setting [6]), “Not fittable”; in assay [2] (reversed titration: GG (15 µM) in cell + LaM (300 µM) in syringe, read-out: Kd), 2.8 µM and ~3 µM. In addition, the “Affinity relative to A6” value in assay [2] (Table S1, reversed titration: RNA 15 (cell), LaM 300 (syringe)) is recorded as 11.2. The same compound came in with a ΔH in assay [2] (setting [9]) of -34.1 kcal/mol. In addition, the ΔS in assay [2] (setting [9]) is recorded as -91.1 cal mol-1 K-1.

As for `Nc1nc2c(ncn2[C@@H]2O[C@@H]3CO[P@](=O)(O)O[C@H]4[C@@H](O)[C@H](n5cnc6c(=O)[nH]c(N)nc65)O[C@@H]4CO[P@](=O)(O)O[C@H]3[C@H]2O)c(=O)[nH]1` [cyclic-di-GMP, Cyclic-di-GMP], the “binding to the LaM domain by ITC (in words)” value in assay [2] was “sub-micromolar affinity”. Also, in assay [2] (Table S1), the “Affinity relative to A6 (site 1)” value came out at 1.2, the “Affinity relative to A6 (site 2)” value is recorded as 220, the “ΔH (site 1)” value is 0 kcal/mol and the “ΔH (site 2)” value was 2.0 kcal/mol. Besides, in assay [2] (Table S1), the “ΔS (site 1)” value was 29.8 cal mol-1 K-1 and the “ΔS (site 2)” value amounted to 26.5 cal mol-1 K-1. The Kd in assay [2] (Table S1, LaM 40 (cell), ligand 730-750 (syringe), read-out: Kd (site 1)) came out at 0.3 ± 0.3 µM. In assay [2] (Table S1, LaM 40 (cell), ligand 730-750 (syringe), read-out: Kd (site 2)), the Kd is over 10 µM. Moreover, the Kd in assay [2] (second site, fit with two independent sets of sites, LaM 40 μM + ligand 730-750 μM, read-out: Kd2) is 54 µM.

As for `Nc1ncnc2c1ncn2[C@@H]1O[C@H](CO)[C@@H](OP(=O)(O)O)[C@H]1O` [3'-AMP, 3´-AMP], in assay [1] (NMR titration), the “Ile364 chemical shift change (in words)” value was “not appreciably shifted” and the “shift of the Ile364 peak, fold smaller than with 5´-AMP” value stood at 30 fold.

With 5´-APAPAPGPAPA-3´ [AAAGAA], the “Rel. aff. (affinity relative to AAAAAA)” value in assay [2] is reported as 1.8. Moreover, the Kd in assay [2] (setting [10]) amounted to 0.14 ± 0.02 µM. Also, in assay [2] (setting [6]), the ΔH was -27.7 kcal/mol and the ΔS is on record as -63.2 cal mol^-1 K^-1. Further, the “Affinity relative to A6” value in assay [2] (setting [8]) is on record as 0.56.

Regarding 5´-APAPAPAPAPG-3´ [AAAAAG], in assay [2], the “Rel. aff. (affinity relative to AAAAAA)” value is 1.9. The Kd in assay [2] (setting [10]) was 0.13 ± 0.02 µM; in assay [4] it was 19 ± 2 µM. Further, the ΔH in assay [2] (setting [6]) was -27.5 kcal/mol; in assay [3], -27.8 kcal/mol. Also, the ΔS in assay [2] (setting [6]) is -62.3 cal mol^-1 K^-1; in assay [3], -73.2 cal mol-1 K-1.

Turning to `Nc1nc2c(ncn2[C@@H]2O[C@H](COP(=O)(O)O)[C@@H](O)[C@H]2O)c(=O)[nH]1` [5'-GMP, 5´-GMP], the Kd in assay [1] was 40 µM. Also, the “shift of the Gln333 signal relative to 5´-AMP” value in assay [1] (at 200 µM nucleotide) is recorded as “twice as much”. The binding stoichiometry in assay [1] (from fit of NMR chemical shift changes) came out at 2.04.

Regarding 5´-APAPAPAPAPSA-3´ [(RP)-AAAAAPSA], in assay [2] (setting [10]), the Kd is 0.29 µM. In assay [2] (setting [6]), this compound had a ΔH of -19.4 kcal/mol and a ΔS of -36.2 cal mol^-1 K^-1. The “Affinity relative to A6” value in assay [2] (setting [8]) was 1.16.

Take 5´-APAPAPAPAPA-3´ [AAAAAA]: the “Rel. aff. (affinity relative to AAAAAA)” value in assay [2] is on record as 1.0. Moreover, in assay [2] (setting [10]), the Kd is 0.25 µM. Besides, in assay [2] (setting [6]), the ΔH was -19.9 kcal/mol and the ΔS is given as -37.6 cal mol^-1 K^-1. The “Affinity relative to A6” value in assay [2] (setting [8]) is given as 1.

In assay [2] (setting [6]), 5´-APG-3´ [AG] displayed a ΔH of -23.9 kcal/mol and a ΔS of -56.2 cal mol^-1 K^-1. Also, the Kd in assay [2] (setting [7]) is 3.1 µM and ~3 µM. The “Affinity relative to A6” value in assay [2] (setting [8]) is recorded as 12.4.

For `Nc1ncnc2c1ncn2[C@@H]1O[C@H](COP(=O)(O)O)[C@@H](O)[C@H]1O` [5'-AMP, 5´-AMP], the Kd in assay [1] is 130 µM.

Take 5´-APAPAPAPGPA-3´ [AAAAGA]: the “Rel. aff. (affinity relative to AAAAAA)” value in assay [2] was found to be 3.2. Further, in assay [2] (setting [6]), the ΔH was -29.5 kcal/mol and the ΔS was -68.0 cal mol^-1 K^-1. Also, in assay [2] (setting [8]), the “Affinity relative to A6” value is listed as 0.32. In assay [3], this compound came in with a ΔH of -10.2 kcal/mol and a ΔS of -11.9 cal mol-1 K-1. Moreover, the Kd in assay [4] was 10 ± 6 µM.

For the compound `Nc1nc2c(ncn2[C@@H]2O[C@@H]3COP(=O)(O)O[C@H]4[C@@H](O)[C@H](n5cnc6c(N)ncnc65)O[C@@H]4COP(=O)(O)O[C@H]3[C@H]2O)c(=O)[nH]1` [3',3'-cGAMP, 3‘,3’-cGAMP], in assay [2], the Kd is 0.7 ± 0.3 µM and the “binding to the LaM domain by ITC (in words)” value is given as “sub-micromolar affinity”. For the same compound, in assay [2] (Table S1), the “Affinity relative to A6 (site 1)” value turned out to be 2.8, the “Affinity relative to A6 (site 2)” value was found to be 440, the “ΔH (site 1)” value worked out at 0 kcal/mol and the “ΔH (site 2)” value came out at 4.8 kcal/mol. Moreover, in assay [2] (Table S1), the “ΔS (site 1)” value was 28.3 cal mol-1 K-1 and the “ΔS (site 2)” value is listed as 34.4 cal mol-1 K-1. Also, in assay [2] (read-out: Kd2, second site, fit with two independent sets of sites, LaM 40 μM + ligand 730-750 μM), the Kd was 110 µM. The Kd in assay [2] (read-out: Kd (site 2), Table S1, LaM 40 (cell), ligand 730-750 (syringe)) is over 10 µM.

With 5´-UPUPUPUPUPU-3´ [UUUUUU], the Kd in assay [2] (setting [10]) amounted to 1.8 ± 0.1 µM; in assay [4], 100 ± 30 µM. Also, the figures for the ΔH in assay [2] (setting [6]) and in assay [3] were -21.4 kcal/mol and -11.0 kcal/mol, respectively. The results for the ΔS in assay [2] (setting [6]) and in assay [3] were -46.6 cal mol^-1 K^-1 and -19.2 cal mol-1 K-1, respectively. In assay [2] (setting [8]), the “Affinity relative to A6” value worked out at 7.2. For the same compound, the “fold weaker binding affinity than A6” value in assay [5] was 11 fold.

(Values after paper PMC11259064, “Enhanced binding of guanylated poly(A) RNA by the LaM domain of LARP1” (RNA Biology, 2024).)
